These results are taken from paper PMC11191352, “Mandelonitrile lyase MDL2-mediated regulation of seed amygdalin and oil accumulation of Prunus Sibirica” (BMC Plant Biology, 2024).

A word on the Km: it is the substrate concentration at which the rate is half of its maximum.

The test system of the assay is T1, PsMDL2.
T1 construct: gene MDL2
Description: spectrophotometric mandelonitrile cleavage at […] nm, Lineweaver-Burk. Type of assay: biochemical, Prunus sibirica. The conditions noted are these: 0.1 M citrate-phosphate buffer pH 5.0, 25 °C; mandelonitrile 0.05-4.0 mM; purified recombinant enzyme.

Take `N#CC(O)c1ccccc1` (stereo not shown) [mandelonitrile]: the Km was determined as 220 µM.
